Data set [1] addresses T1, GluK3 (Rattus norvegicus, UniProt P42264).
T1 construct: made in house; host or cells: Sf9 insect cells (membranes)
The settings on record: cited from earlier work.

The target in data set [2] is T2, GluK5 (Rattus norvegicus, UniProt Q63273).
T2 construct: made in house; host or cells: Sf9 insect cells (membranes)
T2 sequence (Q63273 15-979): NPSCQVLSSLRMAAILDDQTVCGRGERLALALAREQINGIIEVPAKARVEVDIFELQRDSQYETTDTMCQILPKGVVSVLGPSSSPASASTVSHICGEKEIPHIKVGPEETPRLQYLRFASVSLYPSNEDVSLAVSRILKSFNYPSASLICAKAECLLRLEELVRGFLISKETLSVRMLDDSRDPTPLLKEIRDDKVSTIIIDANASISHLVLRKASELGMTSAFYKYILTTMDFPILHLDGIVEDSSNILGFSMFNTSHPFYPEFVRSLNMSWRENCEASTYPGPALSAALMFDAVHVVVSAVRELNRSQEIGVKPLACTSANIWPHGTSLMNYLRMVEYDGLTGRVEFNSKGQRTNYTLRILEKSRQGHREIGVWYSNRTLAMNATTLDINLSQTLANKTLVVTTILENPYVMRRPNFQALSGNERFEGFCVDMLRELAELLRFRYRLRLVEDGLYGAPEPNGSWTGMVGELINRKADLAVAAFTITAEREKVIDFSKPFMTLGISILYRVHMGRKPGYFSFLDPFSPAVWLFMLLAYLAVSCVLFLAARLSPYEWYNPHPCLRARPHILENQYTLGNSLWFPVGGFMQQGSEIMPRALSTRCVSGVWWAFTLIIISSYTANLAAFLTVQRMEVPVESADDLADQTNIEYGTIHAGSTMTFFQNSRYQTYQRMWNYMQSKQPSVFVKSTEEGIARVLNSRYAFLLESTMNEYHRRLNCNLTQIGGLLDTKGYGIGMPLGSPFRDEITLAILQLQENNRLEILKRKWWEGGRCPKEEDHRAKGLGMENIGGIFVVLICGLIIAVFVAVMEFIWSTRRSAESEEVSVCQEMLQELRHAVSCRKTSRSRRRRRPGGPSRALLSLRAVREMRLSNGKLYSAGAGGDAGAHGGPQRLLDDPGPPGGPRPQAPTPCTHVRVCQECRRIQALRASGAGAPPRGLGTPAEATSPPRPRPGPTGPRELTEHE
The settings on record: recombinant rat iGluR, mean ± SEM; cited from earlier work.

Data set [3] deals with T3, GluA2 (Rattus norvegicus, UniProt P19491).
T3 construct: made in house; host or cells: Sf9 insect cells (membranes)
The settings on record: recombinant rat iGluR, mean ± SEM; cited from earlier work.

Data set [4] concerns the target T4, GluK2 (Rattus norvegicus, UniProt P42260).
T4 construct: made in house; host or cells: Sf9 insect cells (membranes)
To be noted: recombinant rat iGluR, mean ± SEM; cited from earlier work.

The target in data set [5] is T5, GluK1 (Rattus norvegicus, UniProt P22756).
T5 construct: made in house; host or cells: Sf9 insect cells (membranes)
The settings on record: recombinant rat iGluR, mean ± SEM; cited from earlier work.

The target of data set [6] is T1, GluK3. Kind of data set: Radioligand binding at recombinant homomeric GluK3 in Sf9 membranes. To be noted: recombinant rat homomeric receptor, [3H]-kainic acid, mean ± SEM. Here is the method:
(§1) Ligand binding affinities at recombinant rat homomeric GluA2, GluK1−3, and GluK5 were determined as previously detailed. […] The filters were dried at 70 °C for 1 h, and 50 μL/well Microscint 20 (PerkinElmer, Waltham, MA, USA) was added. Radioactivity was detected with a TopCounter (PerkinElmer, Waltham, MA, USA). GluA2 and GluK5 assays were filtered on GF/C type filters using Millipore 12-well filtration manifolds (Merck Life Science, Søborg, Denmark) and washed twice with ice-cold assay buffer. Filters were placed in pony vials (PerkinElmer, Waltham, MA, USA), 3 mL of Ultima Gold scintillation fluid (PerkinElmer, Waltham, MA, USA) was added, and DPM (disintegrations per minute) were determined using a TriCarb 2900 scintillation counter (PerkinElmer, Waltham, MA, USA).
(§2) All competition curves (n ≥ 3 per ligand) were determined in triplicate. Data were analyzed using GraphPad Prism 6 (GraphPad Software, San Diego, CA, USA) to determine ligand affinity (Ki) and Hill coefficient (nH) using the one-site Ki and four-parameter logistics equations, respectively.

The target in data set [7] is T3, GluA2. Kind of data set: Radioligand binding at recombinant homomeric GluA2 in Sf9 membranes. The settings on record: recombinant rat homomeric receptor, [3H]-(RS)-AMPA, mean ± SEM. On the procedure: as §1, §2
The target of data set [8] is T6, GluK3a (Rattus norvegicus, UniProt P42264).
T6 construct: expressed in transfected cells
Kind of data set: Intracellular Ca2+ imaging assay, HEK293 cells expressing GluK3a. In kind it is cell-based. To be noted: 100 µM KA + 300 µM BPAM344, Ca2+ fluorescence, read-out: IC50, antagonism of agonist-evoked responses at GluK3. From the text: For the determination of antagonistic activity of compounds at GluK1, GluK3 and GluA2 receptors, stable HEK293 cell lines expressing rat GluK1b(Q), GluK3a, and GluA2(Q)i were created. A polyclonal stable cell line expressing GluK3a was created as described previously. For the creation of polyclonal stable cell lines expressing GluK1and GluA2 receptors, cDNA encoding blasticidin-S deaminase (blas) enzymes were inserted into the pIRES plasmid vector (Clontech, Mountain View, CA, USA) to create the plasmid vector pRES(blas). Subsequently, cDNA for rat GluK1(Q)1b and the flip isoform of rat GluA2(Q)i were inserted into pRES(blas) to create the expression constructs GluK1b(Q)pIRES(blas) and GluA2i(Q)pIRES(blas), respectively. These were used to transfect GripTite^TM HEK293 cells followed by selecting with 20 µg/mL blasticidin (Invivogen, Toulouse, France) and 0.50 mg/mL geneticin in the presence of 20 µM of the AMPA receptor antagonist CNQX (Tocris, Bristol, UK) until stably transfected GluK1b(Q) and GluA2(Q)i cell lines were obtained. For functional assays, cells were plated into clear-bottomed, black 96-well fluorescence culture plates (Corning, Vordingborg, Denmark), and when >70% confluent, the cells were loaded with 2 μM Fluo 4-AM calcium sensitive dye (Abcam, Cambridge, UK) and used for the imaging of agonist-evoked changes in intracellular Ca^2+ using a FlexStation I plate reader (Molecular Devices, San Jose, CA, USA). […] Changes in dye fluorescence in response to the addition of an agonist solution were then measured at 538 nm using excitation at 485 nm and emission cut-off at 515 nm. Baseline fluorescence was measured for 16 s before the addition of 50 µL agonist solution to each well of the assay plate, and fluorescence was measured for 120 to 160 s after addition of the agonists. Peak change in fluorescence was calculated as the difference between the maximal observed increase in fluorescence and pre-agonist baseline fluorescence. The agonist solutions contained 100 µM KA together with 300 µM of the KAR positive allosteric modulator BPAM344 (Sigma-Aldrich Chemical, St. Louis, MO, USA) for GluK1 and GluK3 experiments or 100 µM glutamate together with 100 µM of the AMPAR positive allosteric modulator cyclothiazide for GluA2 experiments (HelloBio, Bristol, UK). Responses were determined in at least triplicate at each compound concentration.

For data set [9], the target named is T5, GluK1. Kind of data set: Radioligand binding at recombinant homomeric GluK1 in Sf9 membranes. The settings on record: recombinant rat homomeric receptor, [3H]-(S)-NF608, mean ± SEM. Here is the method: as §1, §2
Data set [10] has as its target T2, GluK5. Kind of data set: Radioligand binding at recombinant homomeric GluK5 in Sf9 membranes. The settings on record: recombinant rat homomeric receptor, [3H]-kainic acid, mean ± SEM. Here is the method: as §1, §2
The target in data set [11] is T4, GluK2. Kind of data set: Radioligand binding at recombinant homomeric GluK2 in Sf9 membranes. The settings on record: recombinant rat homomeric receptor, [3H]-kainic acid, mean ± SEM. Here is the method:
as §1, §2

For orientation: Ki means the dissociation constant of the complex between target and ligand, obtained from inhibition or displacement. By IC50 is commonly meant the concentration that inhibits the measured activity by half. In general, melting point refers to the temperature of the solid-liquid transition.

Like-named read-outs stand apart in the source and are kept apart here.

T4 sequence (P42260 32-908): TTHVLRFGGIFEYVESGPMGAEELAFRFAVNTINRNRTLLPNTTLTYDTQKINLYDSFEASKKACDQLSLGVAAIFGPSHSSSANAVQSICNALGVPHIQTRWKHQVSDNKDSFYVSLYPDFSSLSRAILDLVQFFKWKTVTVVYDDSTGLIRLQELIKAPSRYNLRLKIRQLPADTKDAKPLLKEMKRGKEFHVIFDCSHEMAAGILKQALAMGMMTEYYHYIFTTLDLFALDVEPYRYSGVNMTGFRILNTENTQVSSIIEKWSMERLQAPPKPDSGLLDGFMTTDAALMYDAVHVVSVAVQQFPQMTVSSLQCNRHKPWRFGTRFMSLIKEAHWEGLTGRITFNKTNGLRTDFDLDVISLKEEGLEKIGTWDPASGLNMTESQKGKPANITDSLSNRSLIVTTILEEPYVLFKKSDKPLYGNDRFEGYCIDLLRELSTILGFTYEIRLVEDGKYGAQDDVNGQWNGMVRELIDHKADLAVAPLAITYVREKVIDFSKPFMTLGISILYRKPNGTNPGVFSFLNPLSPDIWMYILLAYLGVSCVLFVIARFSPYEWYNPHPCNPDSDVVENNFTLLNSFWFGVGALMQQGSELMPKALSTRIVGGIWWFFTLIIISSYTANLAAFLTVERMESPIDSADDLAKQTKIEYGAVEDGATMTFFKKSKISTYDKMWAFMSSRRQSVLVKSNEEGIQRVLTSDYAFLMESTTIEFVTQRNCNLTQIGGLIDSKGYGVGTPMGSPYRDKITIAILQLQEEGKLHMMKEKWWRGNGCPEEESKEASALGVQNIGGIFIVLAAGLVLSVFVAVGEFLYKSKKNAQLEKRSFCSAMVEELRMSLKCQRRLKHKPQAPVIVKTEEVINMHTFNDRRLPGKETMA
T1 sequence (P42264 32-919): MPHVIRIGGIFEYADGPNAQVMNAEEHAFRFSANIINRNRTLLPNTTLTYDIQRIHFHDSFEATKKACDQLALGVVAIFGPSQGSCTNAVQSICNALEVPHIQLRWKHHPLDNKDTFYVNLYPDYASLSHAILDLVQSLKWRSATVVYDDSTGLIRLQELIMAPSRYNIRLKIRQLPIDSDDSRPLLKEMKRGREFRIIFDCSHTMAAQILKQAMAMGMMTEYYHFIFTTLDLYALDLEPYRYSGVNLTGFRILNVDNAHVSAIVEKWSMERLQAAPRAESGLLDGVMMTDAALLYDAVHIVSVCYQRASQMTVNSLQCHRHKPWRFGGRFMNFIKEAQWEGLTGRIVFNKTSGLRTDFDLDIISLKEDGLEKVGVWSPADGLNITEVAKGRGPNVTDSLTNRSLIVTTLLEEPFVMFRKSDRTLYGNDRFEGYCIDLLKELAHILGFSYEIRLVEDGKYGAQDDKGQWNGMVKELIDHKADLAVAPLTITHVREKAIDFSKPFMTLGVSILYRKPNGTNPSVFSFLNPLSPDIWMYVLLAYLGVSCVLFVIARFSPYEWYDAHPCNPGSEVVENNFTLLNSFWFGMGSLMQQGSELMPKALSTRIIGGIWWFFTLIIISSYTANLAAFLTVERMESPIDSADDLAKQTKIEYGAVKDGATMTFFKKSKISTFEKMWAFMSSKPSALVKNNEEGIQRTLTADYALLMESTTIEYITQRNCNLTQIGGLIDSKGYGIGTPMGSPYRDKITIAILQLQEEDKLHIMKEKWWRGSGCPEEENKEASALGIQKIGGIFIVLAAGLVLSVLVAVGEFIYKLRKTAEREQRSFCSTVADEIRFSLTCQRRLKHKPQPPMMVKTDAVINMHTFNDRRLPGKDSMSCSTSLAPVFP
T5 sequence (P22756 31-949): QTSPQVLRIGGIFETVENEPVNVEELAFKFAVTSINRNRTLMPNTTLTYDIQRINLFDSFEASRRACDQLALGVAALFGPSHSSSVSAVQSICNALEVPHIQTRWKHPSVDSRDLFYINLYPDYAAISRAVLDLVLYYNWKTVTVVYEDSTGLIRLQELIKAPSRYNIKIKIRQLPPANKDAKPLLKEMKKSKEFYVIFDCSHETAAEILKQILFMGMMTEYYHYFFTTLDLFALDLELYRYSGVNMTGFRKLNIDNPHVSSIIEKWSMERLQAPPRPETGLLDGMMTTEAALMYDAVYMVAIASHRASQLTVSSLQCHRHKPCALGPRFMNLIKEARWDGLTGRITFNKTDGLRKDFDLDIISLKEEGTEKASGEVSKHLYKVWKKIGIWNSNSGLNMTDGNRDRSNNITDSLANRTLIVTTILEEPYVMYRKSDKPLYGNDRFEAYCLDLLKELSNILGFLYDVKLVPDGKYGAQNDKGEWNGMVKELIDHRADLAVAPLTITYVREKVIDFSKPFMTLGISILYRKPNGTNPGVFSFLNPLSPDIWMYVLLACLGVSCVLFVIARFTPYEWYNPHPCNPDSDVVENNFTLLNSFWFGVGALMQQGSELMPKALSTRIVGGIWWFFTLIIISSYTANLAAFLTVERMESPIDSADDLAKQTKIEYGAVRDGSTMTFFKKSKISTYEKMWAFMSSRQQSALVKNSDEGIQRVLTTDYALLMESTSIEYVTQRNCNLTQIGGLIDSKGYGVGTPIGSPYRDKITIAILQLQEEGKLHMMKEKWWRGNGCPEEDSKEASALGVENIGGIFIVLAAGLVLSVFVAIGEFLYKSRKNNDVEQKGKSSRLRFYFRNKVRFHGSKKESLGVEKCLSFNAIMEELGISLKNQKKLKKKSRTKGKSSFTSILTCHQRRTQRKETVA
T3 sequence (P19491 22-883): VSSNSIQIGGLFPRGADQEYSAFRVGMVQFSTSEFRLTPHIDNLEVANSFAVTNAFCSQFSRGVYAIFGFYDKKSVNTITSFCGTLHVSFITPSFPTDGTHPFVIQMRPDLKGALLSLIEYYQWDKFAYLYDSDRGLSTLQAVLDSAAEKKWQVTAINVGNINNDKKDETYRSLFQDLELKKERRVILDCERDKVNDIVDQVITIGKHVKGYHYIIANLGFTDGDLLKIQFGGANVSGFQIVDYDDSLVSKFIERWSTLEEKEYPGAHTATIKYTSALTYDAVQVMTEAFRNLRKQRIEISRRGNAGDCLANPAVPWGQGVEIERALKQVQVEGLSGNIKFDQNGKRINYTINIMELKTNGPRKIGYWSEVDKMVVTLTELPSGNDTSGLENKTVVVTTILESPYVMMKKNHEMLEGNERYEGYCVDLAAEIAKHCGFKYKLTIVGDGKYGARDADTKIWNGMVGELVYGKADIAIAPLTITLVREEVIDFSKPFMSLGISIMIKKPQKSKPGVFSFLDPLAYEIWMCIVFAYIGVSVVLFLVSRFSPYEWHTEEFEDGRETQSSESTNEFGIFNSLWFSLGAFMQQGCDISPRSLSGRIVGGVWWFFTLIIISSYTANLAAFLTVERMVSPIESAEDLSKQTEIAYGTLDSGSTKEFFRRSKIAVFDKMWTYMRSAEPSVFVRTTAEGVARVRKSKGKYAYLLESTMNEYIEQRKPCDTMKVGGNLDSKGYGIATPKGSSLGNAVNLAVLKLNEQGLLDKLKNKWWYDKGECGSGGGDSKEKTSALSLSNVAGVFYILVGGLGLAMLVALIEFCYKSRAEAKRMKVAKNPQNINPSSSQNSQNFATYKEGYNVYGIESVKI
T6 sequence (P42264 32-919): as the sequence (P42264 32-919) above

With `N[C@@H](Cc1c[nH]c(S)n1)C(=O)O` [(S)-2-mercaptohistidine], the “binding preference at GluK3 over the GluK1, GluK2 and GluK5 subtypes” value in [1] (at least) is on record as 15–100 fold.
Turning to `O=C(Nn1c(=O)c(=O)[nH]c2cc(C#Cc3ccccc3)ccc21)c1ccccc1` [Compound 1, N-(2,3-dioxo-6-(phenylethynyl)-3,4-dihydroquinoxalin-1(2H)-yl)benzamide], the Ki in [2] was over 100000 nM; in [3], 24000 ± 6000 nM; in data set [4] it was about 100000 nM; in [5], over 100000 nM.
In the case of `O=C(Nn1c(=O)c(=O)[nH]c2cc(C#Cc3cncnc3)ccc21)c1ccccc1` [Compound 27], the melting point lay within 318 to 320 °C. For the same molecule, the inhibitory constant (Ki) in data set [6] came out at 280 ± 20 nM. The inhibition constant Ki in [7] is over 100000 nM. Besides, the 50% inhibitory concentration (IC50) in data set [8] was found to be 600 nM. Moreover, the inhibition constant (Ki) in data set [9] was found to be 11000 ± 2000 nM. For the same molecule, the Ki in data set [10] was over 100000 nM. Moreover, in [11], the Ki was 12000 ± 2000 nM.
Regarding `O=C(Nn1c(=O)c(=O)[nH]c2cc(C#Cc3ccc4[nH]ncc4n3)ccc21)c1ccccc1` [Compound 29], the Ki was 130 ± 30 nM in [6]; 230 ± 20 nM in data set [7]; 150 ± 50 nM in data set [9]; 3800 ± 100 nM in data set [10]; 91 ± 15 nM in [11]. The IC50 in [8] turned out to be 2200 nM.
Turning to `O=c1[nH]c2cc([N+](=O)[O-])c([N+](=O)[O-])cc2[nH]c1=O` [DNQX], the Ki is 7100 ± 900 nM in [2]; 360 ± 30 nM in data set [1] (recombinant rat iGluR, mean ± SEM); 2100 ± 300 nM in [4]; 650 ± 30 nM in data set [5].

(Values after publication PMC9369419 (International Journal of Molecular Sciences, 2022).)
